This note sets out measurements from patent publication US11179383B2 (Gilead Sciences, Inc., priority 2018, dated 2021).

The experiment deals with T1, α4β7 integrin (Homo sapiens, UniProt P13612+P26010).
T1 construct: monitoring the capture of α4β7 integrin expressing cells on a recombinant MadCAM-1 extracellular domain-coated plate; endogenous in cells; host or cells: RPMI8866 cells
T1 sequence (P13612 34-1032): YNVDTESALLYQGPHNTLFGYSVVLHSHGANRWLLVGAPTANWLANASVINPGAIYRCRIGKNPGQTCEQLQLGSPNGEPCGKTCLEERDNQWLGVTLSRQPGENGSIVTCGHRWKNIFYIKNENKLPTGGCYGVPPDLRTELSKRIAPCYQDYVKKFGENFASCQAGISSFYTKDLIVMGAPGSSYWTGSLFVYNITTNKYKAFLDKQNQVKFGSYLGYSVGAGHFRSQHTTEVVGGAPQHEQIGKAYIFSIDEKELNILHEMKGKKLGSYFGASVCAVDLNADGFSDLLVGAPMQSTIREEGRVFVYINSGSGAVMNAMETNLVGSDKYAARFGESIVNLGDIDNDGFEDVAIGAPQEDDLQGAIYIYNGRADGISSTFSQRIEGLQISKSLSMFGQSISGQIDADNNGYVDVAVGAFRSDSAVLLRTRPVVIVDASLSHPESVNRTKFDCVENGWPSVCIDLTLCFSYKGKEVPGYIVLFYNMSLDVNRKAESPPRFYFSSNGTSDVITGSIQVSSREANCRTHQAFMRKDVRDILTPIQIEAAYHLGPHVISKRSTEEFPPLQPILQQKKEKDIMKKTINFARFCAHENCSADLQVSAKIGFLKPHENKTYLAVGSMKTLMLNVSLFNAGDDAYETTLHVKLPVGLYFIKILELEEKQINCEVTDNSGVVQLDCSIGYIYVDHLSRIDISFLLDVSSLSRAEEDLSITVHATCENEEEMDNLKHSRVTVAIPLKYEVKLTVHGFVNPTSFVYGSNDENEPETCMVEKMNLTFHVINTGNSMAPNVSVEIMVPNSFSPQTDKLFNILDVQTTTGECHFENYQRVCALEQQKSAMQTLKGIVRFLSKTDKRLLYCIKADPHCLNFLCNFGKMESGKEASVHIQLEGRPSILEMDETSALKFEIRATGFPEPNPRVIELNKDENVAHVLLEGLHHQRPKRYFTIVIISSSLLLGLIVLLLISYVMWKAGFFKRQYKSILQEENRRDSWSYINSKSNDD
T1 sequence (P26010 20-798): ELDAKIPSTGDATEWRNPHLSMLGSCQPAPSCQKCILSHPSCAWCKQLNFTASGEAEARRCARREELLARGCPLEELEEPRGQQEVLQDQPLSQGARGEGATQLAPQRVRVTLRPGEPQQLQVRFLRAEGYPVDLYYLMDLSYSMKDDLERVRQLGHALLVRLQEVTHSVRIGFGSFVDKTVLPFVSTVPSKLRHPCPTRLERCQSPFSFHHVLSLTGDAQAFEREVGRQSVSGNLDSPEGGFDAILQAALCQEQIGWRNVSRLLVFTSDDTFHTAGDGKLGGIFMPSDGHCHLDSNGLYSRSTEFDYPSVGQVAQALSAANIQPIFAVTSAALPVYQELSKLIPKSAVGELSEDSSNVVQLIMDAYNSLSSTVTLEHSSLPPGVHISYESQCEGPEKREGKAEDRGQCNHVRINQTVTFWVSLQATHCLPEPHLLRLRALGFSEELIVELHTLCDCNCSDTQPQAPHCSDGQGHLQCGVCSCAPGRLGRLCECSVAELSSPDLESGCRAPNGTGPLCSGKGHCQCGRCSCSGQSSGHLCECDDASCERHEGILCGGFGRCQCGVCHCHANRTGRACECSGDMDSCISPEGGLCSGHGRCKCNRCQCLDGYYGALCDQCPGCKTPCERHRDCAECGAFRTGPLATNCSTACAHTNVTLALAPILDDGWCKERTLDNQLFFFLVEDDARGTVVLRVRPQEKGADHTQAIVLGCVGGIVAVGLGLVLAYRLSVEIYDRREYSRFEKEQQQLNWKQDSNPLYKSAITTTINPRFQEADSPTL
Description: α4β7 Integrin Cell Capture Assay. The format is cell-based. The note with it: capture of α4β7 integrin expressing RPMI8866 cells on recombinant MadCAM-1 extracellular domain-coated plate, DMEM+0.5% FBS+0.5 mM MnCl2. An outline of the steps:
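RPMI8866 cells in DMEM + 0.5% FBS + 0.5 mM MnCl2 preincubated with compound 1 h at 37 °C, then allowed to bind 30 min at 37 °C to plates coated with MAdCAM-1 extracellular domain (1.0 μg/mL). Cells fixed with glutaraldehyde, Hoechst-stained, imaged and bound cells counted; EC50 from cell count versus concentration.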

Where two headings read alike, the source gives them in different places.

As for `Cn1c(=O)c(-c2ccc(C[C@H](NC(=O)c3c(F)cccc3F)C(=O)O)c3ncccc23)cc2ccccc21` [Example 84, (S)-2-(2,6-difluorobenzamido)-3-(1-methyl-2-oxo-1,2-dihydro-[3,5′-biquinolin]-8′-yl)propanoic acid], the EC50 (in general, the concentration needed to bring the measured effect to its halfway point) (read-out: EC50 α4β7) was 10.9 nM.
With `CN(C)C(=O)Oc1ccc(C[C@H](NC(=O)c2c(Cl)cccc2Cl)C(=O)O)c2ncccc12` [Example 89, (S)-2-(2,6-dichlorobenzamido)-3-(5-((dimethylcarbamoyl)oxy)quinolin-8-yl)propanoic acid], the EC50 (EC50 α4β7 (nM)) amounted to 173 nM.
Consider `O=C(N[C@@H](Cc1ccc(-c2ccc(F)cc2Cl)c2c(Cl)ccnc12)C(=O)O)c1c(F)cccc1F` [Example 90, (S)-3-(4-chloro-5-(2-chloro-4-fluorophenyl)quinolin-8-yl)-2-(2,6-difluorobenzamido)propanoic acid], for which, where the note is “read-out: EC50 α4β7”, the EC50 is 4280 nM.
The same measure, in the same setting: next, `O=C(N[C@@H](Cc1ccc(-c2ccc(F)cc2Cl)c2c(-c3ccc(F)cc3Cl)ccnc12)C(=O)O)c1c(F)cccc1F` [Example 91, (S)-3-(4,5-bis(2-chloro-4-fluorophenyl)quinolin-8-yl)-2-(2,6-difluorobenzamido)propanoic acid]: 686 nM; `COc1cc(F)c(F)cc1-c1ccc(C[C@H](NC(=O)c2c(F)cccc2F)C(=O)O)c2nccc(Cl)c12` [Example 92, (S)-3-(4-chloro-5-(4,5-difluoro-2-methoxyphenyl)quinolin-8-yl)-2-(2,6-difluorobenzamido)propanoic acid]: 89.4 nM.
Same read-out and setting: next, `CCOCc1cc(OC)c(-c2ccc(C[C@H](NC(=O)c3c(F)cccc3F)C(=O)O)c3nccc(Cl)c23)c(OC)c1` [Example 93, (S)-3-(4-chloro-5-(4-(ethoxymethyl)-2,6-dimethoxyphenyl)quinolin-8-yl)-2-(2,6-difluorobenzamido)propanoic acid]: 26.8 nM; `COc1cc(F)c(F)cc1-c1ccc(C[C@H](NC(=O)c2c(Cl)cccc2Cl)C(=O)O)c2nccc(Cl)c12` [Example 94, (S)-3-(4-chloro-5-(4,5-difluoro-2-methoxyphenyl)quinolin-8-yl)-2-(2,6-dichlorobenzamido)propanoic acid]: 111 nM.
On the same count and under the same terms, next, `COc1cc(F)c(F)cc1-c1ccc(C[C@H](NC(=O)c2c(Cl)cccc2Cl)C(=O)O)c2nccc(C)c12` [Example 97, (S)-2-(2,6-dichlorobenzamido)-3-(5-(4,5-difluoro-2-methoxyphenyl)-4-methylquinolin-8-yl)propanoic acid]: 97.2 nM; `Cc1ccnc2c(C[C@H](NC(=O)c3c(Cl)cccc3Cl)C(=O)O)ccc(-c3cc4ccccc4n(C)c3=O)c12` [Example 100, (S)-2-(2,6-dichlorobenzamido)-3-(1,4′-dimethyl-2-oxo-1,2-dihydro-[3,5′-biquinolin]-8′-yl)propanoic acid]: 22.2 nM; `COc1cccc(OC)c1-c1ccc(C[C@H](NC(=O)c2c(F)cc(NS(=O)(=O)c3ccc(-c4ccnc(F)c4)cc3)cc2F)C(=O)O)c2ncccc12` [Example 101, (S)-2-(2,6-difluoro-4-((4-(2-fluoropyridin-4-yl)phenyl)sulfonamido)benzamido)-3-(5-(2,6-dimethoxyphenyl)quinolin-8-yl)propanoic acid]: 1.7 nM.
For the molecule `CCOCc1cc(OC)c(-c2ccc(C[C@H](NC(=O)c3c(F)cc(NS(=O)(=O)c4ccc(-c5ccnc(F)c5)cc4)cc3F)C(=O)O)c3ncccc23)c(OC)c1` [Example 102, (S)-2-(2,6-difluoro-4-((4-(2-fluoropyridin-4-yl)phenyl)sulfonamido)benzamido)-3-(5-(4-(ethoxymethyl)-2,6-dimethoxyphenyl)quinolin-8-yl)propanoic acid], the EC50 (read-out: EC50 α4β7) was 1 nM.
Still for that read-out and setting: next, `COc1cccc(OC)c1-c1ccc(C[C@H](NC(=O)c2c(F)cc(NS(=O)(=O)c3ccc(-c4ccnc(F)c4)cc3)cc2F)C(=O)O)c2ccccc12` [Example 103, (S)-2-(2,6-difluoro-4-((4-(2-fluoropyridin-4-yl)phenyl)sulfonamido)benzamido)-3-(4-(2,6-dimethoxyphenyl)naphthalen-1-yl)propanoic acid]: 1.9 nM.
